From publication PMC7072103, “Simultaneous Determination of 13 Constituents of Radix Polygoni Multiflori in Rat Plasma and Its Application in a Pharmacokinetic Study” (International Journal of Analytical Chemistry, 2020)
Entries after “also recorded” stand apart in the source; their conditions may differ. Read-outs that look alike come from different tables or passages of the source.

Legend:
[1] = Pharmacokinetic study in rats after oral administration of RPM extract (UPLC-MS/MS of plasma); format: in vivo, Sprague-Dawley rats; details: for Latest plasma sample time at which the constituent was detected / Detection in rat plasma after oral RPM extract: RPM extract 36 g/kg oral; for Latest plasma sample time at which the constituent was detected: sampling up to 24 h; for Detection in rat plasma after oral RPM extract: real plasma samples
Procedure: The analysis was performed on an AB Sciex API 5500 Q Trap mass spectrometer (Toronto, Canada), interfaced with a Waters Acquity UPLC separation module. Empower 3.0 and Analyst 1.62 software were used to control UPLC and mass spectrometer, respectively.
Chromatographic separation was achieved on a waters HSS C18 column (100 × 2.1 mm, 1.8 μm, kept at 40°C) using a mobile phase containing 0.025% formic acid that consisted of solvent A (water) and solvent B (acetonitrile). The mobile phase was delivered at 0.3 mL/min, and a gradient program was used as follows: 0-1 min, held 5% to 25% solvent B; 1–3.5 min, linear gradient from 25% to 35% solvent B; 3.5–5 min, linear gradient from 35% to 40% solvent B; 5-6 min, linear gradient from 40% to 60% solvent B; 6-6.1 min, linear gradient from 60% to 95% solvent B; 6.1–8 min, linear gradient from 95% to 100% solvent B; and 8-9 min, held 5% solvent B.
The MS detection was set in positive multiple reaction monitoring (MRM) mode for the analytes and IS. The turbo spray temperature was maintained at 500°C. The nebulizer gas (gas 1), heater gas (gas 2), and curtain gas was set at 45, 50, and 45 psi, respectively. The interface heater was on. The precursor ion, corresponding product ion and dwell time along with declustering potential (DP), entrance potential (EP), collision energy (CE), and collision exit potential (CXP) for each compound were optimized with standard substance. The dwell time was 50 ms for all analytes. The EP and CXP were set at –10 V and −16 V, respectively.
Sample preparations were made using the protein precipitation process. 50 μL thawed plasma, 10 μL IS working solution (puerarin 10 μg/mL), and 150 μL acetonitrile were added to a 1.5 mL tube in that order. After vortexed for 5 min and centrifuged at 12,000 g for 5 min at 4°C, 150 μL of the supernatant was transferred and a 5 μL was injected into the UPLC-MS/MS instrument for analysis.
Male Sprague-Dawley rats (200–240 g) were obtained from Beijing Vital River Laboratory Animal Technology Co., Ltd. (Beijing, China) (SCXK 2016(jing)-0006). The animals were maintained in SPF animal room at temperature 22 ± 2°C, 60 ± 5% humidity, and 12/12 h day/night cycle. All procedures were approved by the Institutional Animal Ethics Committee and performed in accordance with the Regulations of Experiment Animal Administration issued by the State Committee of Science and Technology of China. RPM extract suspended in an equal volume of 5% CMC-Na solution and orally administered to the six rats at a single dose of 36 g/kg (dose calculated as grams of crude materials used to create the extract per kilogram of rat body weight). The dose was set at a subtoxic level to investigate the pharmacokinetic profiles of the constituents of RPM and were approximately 72 times the upper dose (6 g/day) of human recommended by the 2015 edition of Chinese Pharmacopoeia (converted to rat dose based on body surface area conversion). The calculated doses of compounds based on the contents in the extract were 7.38, 14.8, 13.7, 8.82, 15.5, 11.2, 55.8, 1.08, 1170, 11.3, 25.7, 131.4, and 13.0 mg/kg for chrysophanol, emodin, aloe-emodin, rhein, physcion, questin, citreorosein, questinol, TSG, TG, CG, EG, and PG, respectively. Rats were fasted for at least 12 h before the experiments and had free access to water. Blood samples (∼0.25 mL) were collected from the retinal venous plexus into heparinized 1.5 mL polythene tubes before administration and 5, 15, and 30 min and 1, 2, 4, 6, 8, 12, and 24 h after dosing RPM extract at dose of 36 g/kg. The plasma was immediately separated from blood samples and stored frozen at −70°C until analysis.
The pharmacokinetic parameters were calculated using the pharmacokinetic software Phoenix® WinNonlin®, version 7.0 (Scientific Consulting Inc., Apex, NC, USA). The peak plasma concentration (Cmax) and time to reach Cmax (Tmax) were read directly from the experimental data. […]

[2] = Stability of the analytes in rat plasma and processed plasma samples; format: in vitro ADME; details: for Stability, post-preparative: acetonitrile-precipitated plasma supernatant, 24 h at 6°C in autosampler; for Stability, long-term (–70 °C) / Stability, short-term / Stability, freeze–thaw (three cycles): rat plasma; for Stability, long-term (–70 °C): 3 months at −70°C; for Stability, short-term: 4 h at room temperature; for Stability, freeze–thaw (three cycles): −70°C to room temperature
Procedure: The stability of the 13 analytes in rat plasma were assessed by analyzing samples spiked 0.2, 2.7, and 58.3 ng/mL for emodin, aloe-emodin, questin, citreorosein, questinol, TG, CG, EG, PG; 0.6, 8.1, and 175 ng/mL for TSG; 1, 13.5, and 291.6 ng/mL for rhein, physcion; and 2, 27, and 583.2 ng/mL for chrysophanol, respectively, under four conditions: (1) short-term storage for 4 h at room temperature; (2) long-term storage for (3 months at −70°C; (3) three freeze-thaw cycles; and (4) posttreatment storage for 24 h at 6°C setting in UPLC autosampler. The concentrations obtained were compared with the nominal values of the spiked samples. The stability was calculated as the percent of the measured concentration to the initial concentration at time zero. The analytes were considered stable if the assay values were within the acceptable limit of accuracy (85.0∼115%).

[3] = male, Sprague-Dawley, in vivo, rat plasma, single oral dose of RPM extract 36 g/kg, n = 6, mean ± SD, read-out: AUC0–∞
[4] = male, Sprague-Dawley, in vivo, rat plasma, single oral dose of RPM extract 36 g/kg, n = 6, mean ± SD, read-out: Cmax
[5] = male, Sprague-Dawley, in vivo, rat plasma, single oral dose of RPM extract 36 g/kg, n = 6, mean ± SD, read-out: MRT0–∞
[6] = male, Sprague-Dawley, in vivo, rat plasma, single oral dose of RPM extract 36 g/kg, n = 6, mean ± SD, read-out: Tmax
[7] = male, Sprague-Dawley, in vivo, rat plasma, single oral dose of RPM extract 36 g/kg, n = 6, mean ± SD, read-out: t1/2 (converted)
[8] = male, Sprague-Dawley, rat, in vivo, po, 36 g/kg, rat plasma, single oral dose of RPM extract 36 g/kg, n = 6, mean ± SD, read-out: AUC0–t
[9] = high QC (58.3 ng/mL; TSG 175; rhein, physcion 292; chrysophanol 583)
[10] = low QC (0.2 ng/mL; TSG 0.6; rhein, physcion 1; chrysophanol 2)
[11] = middle QC (2.7 ng/mL; TSG 8.1; rhein, physcion 13.5; chrysophanol 27)
[12] = male, Sprague-Dawley, rat, plasma, po, 36 g/kg, rat plasma, single oral dose of RPM extract 36 g/kg, n = 6, mean ± SD, read-out: AUC0–t
[13] = male, Sprague-Dawley, rat plasma, single oral dose of RPM extract 36 g/kg, n = 6, mean ± SD, read-out: AUC0–∞
[14] = male, Sprague-Dawley, rat plasma, single oral dose of RPM extract 36 g/kg, n = 6, mean ± SD, read-out: Cmax
[15] = male, Sprague-Dawley, rat plasma, single oral dose of RPM extract 36 g/kg, n = 6, mean ± SD, read-out: MRT0–∞
[16] = male, Sprague-Dawley, rat plasma, single oral dose of RPM extract 36 g/kg, n = 6, mean ± SD, read-out: Tmax
[17] = male, Sprague-Dawley, rat plasma, single oral dose of RPM extract 36 g/kg, n = 6, mean ± SD, read-out: t1/2 (converted)
[18] = male, Sprague-Dawley, rat, in vivo, po, 36 g/kg
[19] = rat plasma, single oral dose of RPM extract 36 g/kg, n = 6, mean ± SD

SMILES: O=C1c2cccc(O)c2C(=O)c2c(O)cc(CO)cc21 [Aloe-emodin, aloe-emodin]
- Latest plasma sample time at which the constituent was detected [1]: ≤ 12 h
- AUC(0-inf) [1, 3]: 0.00846 ± 0.00344 µg·h/mL
- Cmax [1, 4]: 0.0113 ± 0.0031 µg/mL
- MRT inf [1, 5]: 3.17 ± 1.54 h
- Tmax [1, 6]: 0.22 ± 0.07 h
- half-life [1, 7]: 3.44 ± 1.4 h
- AUC(0-t) [1, 8]: 0.00728 ± 0.00325 µg·h/mL
- Stability, post-preparative [2, 9]: 92.6%
- Stability, post-preparative [2, 10]: 96.4%
- Stability, post-preparative [2, 11]: 102%
- Stability, long-term (–70 °C) [2, 9]: 102%
- Stability, long-term (–70 °C) [2, 10]: 103%
- Stability, long-term (–70 °C) [2, 11]: 98.4%
- Stability, short-term [2, 9]: 104%
- Stability, short-term [2, 10]: 105%
- Stability, short-term [2, 11]: 105%
- Stability, freeze–thaw (three cycles) [2, 9]: 101%
- Stability, freeze–thaw (three cycles) [2, 10]: 99%
- Stability, freeze–thaw (three cycles) [2, 11]: 97.2%

SMILES: Cc1cc(O)c2c(c1)C(=O)c1cccc(O)c1C2=O [Chrysophanol, chrysophanol]
- Latest plasma sample time at which the constituent was detected [1]: ≤ 6 h
- AUC(0-t) [1, 12]: 0.00428 ± 0.00164 µg·h/mL
- AUC(0-inf) [1, 13]: 0.0103 ± 0.00187 µg·h/mL
- Cmax [1, 14]: 0.0019 ± 0.00056 µg/mL
- MRT inf [1, 15]: 6.76 ± 2.06 h
- Tmax [1, 16]: 2.22 ± 1.76 h
- half-life [1, 17]: 3.18 ± 0.62 h

SMILES: O=C1c2cc(O)cc(O)c2C(=O)c2c(O)cc(CO)cc21 [Citreorosein, 1,3,8-trihydroxy-6-(hydroxymethyl)anthracene-9,10-dione]
- Relative bioavailability versus emodin (AUC0–t normalized by molecular weight and dose) ([1]; male, Sprague-Dawley, rat, in vivo, po): 15.8%
- AUC0–t [1, 18]: 0.131 ± 0.0969 µg·h/mL
- AUC0–t relative to that of emodin [1, 18]: 6.0 fold
- AUC(0-inf) [1, 18]: 0.134 ± 0.0964 µg·h/mL
- Cmax [1, 18]: 0.149 ± 0.147 µg/mL
- MRT inf [1, 18]: 5.32 ± 1.85 h
- Tmax [1, 18]: 0.19 ± 0.09 h
- half-life [1, 18]: 3.97 ± 1.31 h
- AUC(0-t) ([1]; male, Sprague-Dawley, rat, in vivo, po, 36 g/kg, AUC0–t): 0.134 ± 0.0964 µg·h/mL

SMILES: Cc1cc(O)c2c(c1)C(=O)c1cc(O)cc(O)c1C2=O [Emodin, 1,3,8-trihydroxy-6-methylanthracene-9,10-dione]
- AUC(0-inf) [1, 3]: 0.801 ± 0.233 µg·h/mL
- Cmax [1, 4]: 0.175 ± 0.0338 µg/mL
- MRT inf [1, 5]: 11.8 ± 5.27 h
- Tmax [1, 6]: 0.19 ± 0.09 h
- half-life [1, 7]: 8.37 ± 4.17 h
- AUC(0-t) [1, 8]: 0.801 ± 0.187 µg·h/mL
- AUC0–t [1, 19]: 0.686 ± 0.187 µg·h/mL
- Stability, post-preparative [2, 9]: 98.1%
- Stability, post-preparative [2, 10]: 101%
- Stability, post-preparative [2, 11]: 103%
- Stability, long-term (–70 °C) [2, 9]: 101%
- Stability, long-term (–70 °C) [2, 10]: 100%
- Stability, long-term (–70 °C) [2, 11]: 102%
- Stability, short-term [2, 9]: 106%
- Stability, short-term [2, 10]: 93.6%
- Stability, short-term [2, 11]: 105%
- Stability, freeze–thaw (three cycles) [2, 9]: 104%
- Stability, freeze–thaw (three cycles) [2, 10]: 102%
- Stability, freeze–thaw (three cycles) [2, 11]: 104%

SMILES: COc1cc(O)c2c(c1)C(=O)c1cc(C)cc(O)c1C2=O [Physcion, physcion]
- Detection in rat plasma after oral RPM extract [1]: not detected
- Detection in rat plasma after oral RPM extract ([1]; listed as physcion): too low to be detected

SMILES: COc1cc(O)cc2c1C(=O)c1c(O)cc(C)cc1C2=O [Questin, questin]
- Detection in rat plasma after oral RPM extract [1]: not detected; also recorded: too low to be detected

SMILES: O=C(O)c1cc(O)c2c(c1)C(=O)c1cccc(O)c1C2=O [Rhein, rhein]
- Latest plasma sample time at which the constituent was detected [1]: ≤ 2 h
- AUC(0-t) [1, 12]: 0.00111 ± 0.00063 µg·h/mL
- AUC(0-inf) [1, 13]: 0.00231 ± 0.00051 µg·h/mL
- Cmax [1, 14]: 0.00106 ± 0.00024 µg/mL
- MRT inf [1, 15]: 1.83 ± 0.56 h
- Tmax [1, 16]: 0.46 ± 0.1 h
- half-life [1, 17]: 1.18 ± 0.39 h

SMILES: COc1cc(O[C@@H]2O[C@H](CO)[C@@H](O)[C@H](O)[C@H]2O)c2c(O)c(C(C)=O)c(C)cc2c1 [TG, torachrysone-8-O-glucoside]
- AUC(0-t) [1, 12]: 0.0212 ± 0.00738 µg·h/mL
- AUC(0-inf) [1, 13]: 0.0217 ± 0.00748 µg·h/mL
- Cmax [1, 14]: 0.0187 ± 0.00406 µg/mL
- MRT inf [1, 15]: 2.1 ± 0.24 h
- Tmax [1, 16]: 0.11 ± 0.07 h
- half-life [1, 17]: 2 ± 0.63 h

SMILES: OC[C@H]1O[C@@H](Oc2c(O)cc(O)cc2/C=C/c2ccc(O)cc2)[C@H](O)[C@@H](O)[C@@H]1O [TSG, 2,3,5,4′-tetrahydroxystilbene-2-O-β-D-glucoside]
- AUC(0-t) [1, 12]: 1.87 ± 0.554 µg·h/mL
- AUC(0-inf) [1, 13]: 1.87 ± 0.581 µg·h/mL
- Cmax [1, 14]: 1.74 ± 0.401 µg/mL
- MRT inf [1, 15]: 3.66 ± 0.97 h
- Tmax [1, 16]: 0.33 ± 0.13 h
- half-life [1, 17]: 5.98 ± 2.62 h
- AUC0–t [1, 19]: 1.811 ± 0.554 µg·h/mL
